Source: US20050203122A1, “Benzenesulfonic acid salts of clopidogrel, methods for preparing same, and pharmaceutical formulations thereof” (Helm AG, priority 2003, published 2005)
Counter-ions that a name gives are not always drawn. Like-named read-outs stand apart in the source and are kept apart here.

Columns and labels:
[1] = acidic, 1N HCl, 5 h
[2] = neutral, water, 5 h
[3] = solid stored at 80° C. for 20 h
Description: 50 mg of the respective salts were weighed separately into volumetric flasks (100 ml) and stored at 80° C. for 20 h.

[4] = for total impurities relative to the clopidogrel base: alkaline, 1N NaOH, 5 h
Description: 50 mg of the respective salts were separately weighed into volumetric flasks (100 ml), and 2 ml of 1N NaOH were added. The flasks were then stored either at room temperature for 5 h or at 80° C. for 5 h. After the end of the particular experiment and, where appropriate, cooling to room temperature, 2 ml of 1N HCl were added to each flask, and the volume was made up to 100 ml with the mobile phase.

[5] = oxidizing, 5 h
[6] = Decrease in active ingredient content of adsorbates on storage at 40° or 60° C. and 75% relative humidity for 15 days; type: physicochemical
Text: The results are summarized in Table 5 below (content after 15 days (initial level standardized at 100%)).

[7] = overall, in particular at room temperature
[8] = 40° and 60° C., 75% relative humidity, 15 days
[9] = room temperature, hydrochloride

Compound	total impurities relative to the clopidogrel base ([1]; 80° C.) [%]	total impurities relative to the clopidogrel base ([1]; room temperature) [%]	total impurities relative to the clopidogrel base ([2]; 80° C.) [%]	total impurities relative to the clopidogrel base ([2]; room temperature) [%]	impurities by HPLC after heat [3] [%]	total impurities relative to the clopidogrel base ([4]; 80° C.) [%]	total impurities relative to the clopidogrel base ([4]; room temperature) [%]	total impurities relative to the clopidogrel base ([5]; 3% H2O2, 80° C.) [%]	total impurities relative to the clopidogrel base ([5]; 3% H2O2, room temperature) [%]	also measured
COC(=O)[C@H](c1ccccc1Cl)N1CCc2sccc2C1 [Clopidogrel Hydrochloride, clopidogrel hydrochloride, reference compound]	–	–	–	–	–	–	–	–	–	total impurities relative to the clopidogrel base ([1]; 80° C., hydrochloride): 3.31%; total impurities relative to the clopidogrel base [1, 9]: 1.86%; total impurities relative to the clopidogrel base ([2]; 80° C., hydrochloride): 4.33%; total impurities relative to the clopidogrel base [2, 9]: 1.84%; impurities by HPLC after heat ([3]; hydrochloride): 32.43%; total impurities relative to the clopidogrel base ([4]; 80° C., hydrochloride): 72.89%; total impurities relative to the clopidogrel base [4, 9]: 1.86%; total impurities relative to the clopidogrel base ([5]; 3% H2O2, 80° C., hydrochloride): 4.16%; total impurities relative to the clopidogrel base ([5]; 3% H2O2, room temperature, hydrochloride): 1.83%
COC(=O)[C@H](c1ccccc1Cl)N1CCc2sccc2C1 [Clopidogrel Hydrogensulfate, clopidogrel hydrogensulfate, reference compound]	2.96	0.32	1.63	0.40	0.31	59.48	0.32	3.50	0.33	–
Clopidogrel besylate [Pure (free) salt]	–	–	–	–	–	–	–	–	–	content after 15 days (initial level standardized at 100%) ([6]; 40° C.): 103.32%; content after 15 days (initial level standardized at 100%) ([6]; 60° C.): 66.48%
clopidogrel benzenesulfonate [Clopidogrel Benzenesulfonate (Amorphous)]	2.36	0.64	3.01	0.85	11.52	25.04	0.64	2.94	0.83	stability compared with the hydrogensulfate and hydrochloride salts ([4]; alkaline conditions): considerably higher
clopidogrel benzenesulfonate [Clopidogrel Benzenesulfonate (Crystalline)]	2.76	0.14	4.18	0.19	4.52	28.05	0.14	–	–	stability compared with clopidogrel hydrogensulfate [7]: more stable; stability (decrease in content) compared with hydrogensulfate and hydrochloride [8]: best stability
